# Values of other authors as cited in patent US20250170254A1, “Subdermal Implant for Sustained Drug Delivery” (OAK CREST INSTITUTE OF SCIENCE, priority 2022, published 2025).
# Key:
# HIV-1 [1] = details: long-acting injectable formulation
# HIV = details: four times the protein adjusted IC90 from non-human primate efficacy studies
# [2] = 600 mg every 8 weeks, intramuscular long-acting formulation
# HIV-1 [3] = test system: HIV-1
# [4] = in vivo
# HIV-1 [5] = details: MDTG versus DTG
compound,measurement,setting,value
"C[C@H]1CO[C@@H]2Cn3cc(C(=O)NCc4ccc(F)cc4F)c(=O)c(O)c3C(=O)N12 [CAB, cabotegravir]",efficacy versus daily oral TDF-FTC in prevention of HIV-1,HIV-1 [1],superiority
same,target steady state plasma concentration (four times PA-IC90),HIV,0.66 µg/mL
same,participants with trough concentrations above 1×PA-IC90,[2],≥ 95%
same,participants with trough concentrations above 4×PA-IC90,[2],≥ 80%
"C[C@@H]1CCO[C@H]2Cn3cc(C(=O)NCc4ccc(F)cc4F)c(=O)c(O)c3C(=O)N12 [DTG, dolutegravir]",IC50,"HIV-1 [3]; in vitro against HIV-1, PBMCs, read-out: IC50 in peripheral blood mononuclear cells (PBMCs)",0.51 nM
same,protein-adjusted IC90 (PA-IC90),"HIV-1 [3]; in vitro against HIV-1, protein-adjusted, mass units",0.064 µg/mL
same,IC90,"HIV-1 [3]; in vitro against HIV-1, protein-adjusted, read-out: protein-adjusted IC90 (PA-IC90)",150 nM
same,systemic half-life,[4],12 to 15 h
CCCCCCCCCCCCCC(=O)Oc1c2n(cc(C(=O)NCc3ccc(F)cc3F)c1=O)C[C@@H]1OCC[C@@H](C)N1C2=O [MDTG],IC50 against HIV-1 compared with DTG,HIV-1 [5],not statistically different
